In US20240417393A1, “CERTAIN 2,5-DIAZABICYCLO[4.2.0]OCTANES AS GLP-1 RECEPTOR MODULATORS” (ASTRAZENECA AB, priority 2021, published 2024) one finds EC50 data, which are given here for 13 compounds.

Structures are written as SMILES.

One assay has as its target T1, human GLP-1R receptor (Homo sapiens, UniProt P43220, L260F).
T1 construct: expressed in transfected cells; host or cells: CHO-K1 (ATCC CCL-61)
Briefly: CHOK1 GLP-1R cAMP Assay (HTRF). The note with it: CHO-K1 cells stably expressing human GLP-1R (Leu260Phe variant), 20 min at rt. In kind it is cell-based. The procedure: A cell line stably expressing the human GLP-1R receptor (NM_002062.5, including the naturally-occurring variant Leu260Phe) in a CHO-K1 (ATCC® CCL-61™) was used for assay.
GLP-1 receptor mediated agonist activity was determined in a cell-based assay measuring cyclic adenosine monophosphate (cAMP) levels in cells using Homogeneous Time-Resolved Fluorescence (HTRF) cAMP detection kit (CisBio catalog #62AM4PEC, cAMP Gs Dynamic range kit). The cAMP detection method is based on a competitive immunoassay, in which cAMP produced by the cells and cAMP labeled with the dye d2 compete for binding to a Europium-Cryptate-labeled anti-cAMP antibody. The specific HTRF signal is inversely proportional to the concentration of cAMP.
Compounds were added to individual well in 384 well-assay plates (Greiner #784076) using an Echo (LabCyte) dispenser from 10 mM stocks. Varying concentration of compounds were added to wells, and DMSO was used to normalize each well to a volume of 100 nL. A dose response curve of GLP-1(7-36)NH2 (Bachem H-6795) was included in each run. 5 μL of cAMP concentration response standards are applied in specified wells in the assay plates. Cryo-preserved cells are thawed and resuspended in assay buffer pre-heated to 37° C. (20 mM 2-[4-(2-hydroxyethyl)piperazin-1-yl]ethanesulfonic acid (HEPES) pH 7.4, 1× Hank's Balanced Salt Solution (HBSS, Life Technologies #14065) supplemented with 0.1% (w/v) bovine serum albumin (Sigma, A-7030)). Cells were centrifuged at 250*g for 5 min at rt, and resuspended in room tempered assay buffer to a final density of 0.16*10^6 cell/mL, to deliver 800 cells/well. 5 μL of assay buffer with 1 mM 3-isobutyl-1-methylxanthin (IBMX; Sigma cat I-7018) was dispensed per well in assay plates using a multidrop combi (Thermo Scientific) subsequently 5 μL of cell suspension was distributed to relevant wells in the assay using a multidrop dispenser. Assay plates were incubated 20 min at rt.
Detection reagents, Europium-Cryptate-labeled anti-cAMP antibody and cAMP labeled with the dye d2, are diluted in lysis buffer, provided by the manufacturer. 5 μL of each detection reagent is supplemented to each assay well using a multidrop dispenser. Assay plates are incubated in the dark for at least one h. The HTRF signal is measured using the HTRF module (excitation: 337 nm, emission A: 665 nm and emission B: 620 nm) in Pherastar FSX (BMG Labtech).
Raw data were converted to pM cAMP using the cAMP standard curve included in each run. Converted data were further analyzed in Genedata Screener (Genedata) and EC50 determinations were made from agonist dose-response curves analyzed with a curve fitting is program using a 4-parameter logistic dose response equation (Equation y=A+((B-A)/1+((C/x)^D))) where A is no stimulation, B is full stimulation, C is the EC50 and D is the Hill slope). The percent effect was determined relative to a saturating concentration of a full GLP-1R agonist (GLP-1(7-36)NH2 has 100% effect in this assay setup).

The target of assay [1] is T2, GLP-1R in a pancreatic insulinoma cell line (EndoC-PH1) (Homo sapiens, UniProt P43220).
T2 construct: host or cells: EndoC-βH1 human pancreatic beta cell line
T2 sequence (P43220 24-463): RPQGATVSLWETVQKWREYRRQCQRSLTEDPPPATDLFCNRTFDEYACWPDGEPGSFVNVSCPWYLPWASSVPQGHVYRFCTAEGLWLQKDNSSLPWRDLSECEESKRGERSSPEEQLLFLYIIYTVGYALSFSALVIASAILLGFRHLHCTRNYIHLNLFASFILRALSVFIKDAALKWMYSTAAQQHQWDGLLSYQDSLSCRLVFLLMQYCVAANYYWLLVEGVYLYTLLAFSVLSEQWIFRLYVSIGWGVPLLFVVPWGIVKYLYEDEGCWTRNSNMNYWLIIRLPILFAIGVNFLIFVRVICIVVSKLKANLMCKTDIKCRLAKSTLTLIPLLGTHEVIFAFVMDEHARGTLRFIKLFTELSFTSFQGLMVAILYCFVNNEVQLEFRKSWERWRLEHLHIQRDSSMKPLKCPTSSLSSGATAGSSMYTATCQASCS
Briefly: EndoC cAMP Accumulation Assay (HTRF). In kind it is cell-based. Conditions: EndoC-PH1 human pancreatic beta cell line, endogenous GLP-1R, 30 min at rt. From the text:
EndoC cAMP Accumulation Assay
A HTRF cAMP assay (cAMP Gs dynamic kit; CisoBio Cat #62AM4PEJ) was used to identify agonists of GLP-1R in a pancreatic insulinoma cell line (EndoC-PH1). […] EndoC-PHlcells have detectable GLP-1R messenger ribonucleic acid (mRNA) as detected by quantitative polymerase chain reaction (qPCR). […] The EndoC-PH1 cell line is a valid model of human beta cells and applicable for screenings to identify novel drug target candidates (Mol. Metab., 2018, 8, 144-157). CisBio HTRF cAMP kits are based on a competitive immunoassay using cryptate-labelled anti-cAMP antibody and d2-labeled cAMP. The detection kit is intended for the direct is quantitative determination of cAMP. The specific signal (i.e. energy transfer) is inversely proportional to the concentration of cAMP in the standard or sample. Test compounds (10 mM in DMSO) were diluted into assay buffer (HBSS (Sigma #H8264) supplemented with 25 mM HEPES (Gibco #15630, pH 7.4), 0.1% BSA (Sigma #A3059) and 0.5 mM IBMX (Sigma #I7018) included fresh on the day of the assay) into 96 well U-bottom plates (Greiner #650201). Diluted compounds were transferred to ECHO source polypropelene plates (Labcyte #P-05525) and dose response curves were dispensed acoustically using ECHO 550 into black shallow-well u-bottom 384-well HTRF Assay Plates (Corning 4514). Cryovials of EndoC-H1 (supplied at 1×10e^7 cells/vial) were used directly for screening. The cryovials and were removed from N2(1) and thawed rapidly in a 37° C. water bath. The cells were resuspended in assay buffer and centrifuged at 300 g for 5 min. Cells were resuspended in assay buffer at the appropriate concentration, typically at 12e5 cells per mL (3000 cells per well, dependent on cell batch) and 2.5 μL diluted cells were added to all wells of destination plate by Multidrop combi reagent dispenser (Thermofisher). The plates were incubated at rt for 30 min. The assay was stopped by adding 2.5 μL anti-cAMP cryptate solution to all wells and 2.5 μL cAMP-d2 solution (both diluted 1:20 in lysis buffer) to columns 1-22 by Combi drop. A volume of 2.5 μL cAMP-d2 solution was added to wells E23 to P24 and 2.5 μL lysis buffer added to wells A23 to D24 by multichannel pipette. The plates were incubated at rt for 1 h and read on an Envision plate reader using excitation wavelength of 320 nm and emission of […] and 660 nm.
Raw data from Envision is converted to % DeltaF according to the manufacturer's instructions. Dose response curves are analysed via 4-Parameter Logistical Analysis and assay plate Z’ values obtained. Samples are graphed as percentage (%) activation plots compared to […] with assay window defined by negative control as basal cell is cAMP levels and positive control are defined by maximum GIP (82.5 nM) signal. GLP-1 (7-36 amide, Bachem H-6795) dose response curve was included on all plates.

T1 sequence (P43220 24-463 L260F): as the sequence (P43220 24-463) above, with L237F counted along it

Take `C[C@]1(c2ccc(Cl)cn2)Oc2cccc(N3CCN(Cc4nc5ccc(C(=O)O)cc5n4C[C@@H]4CCO4)[C@H]4CC[C@@H]43)c2O1` (single isomer, unassigned) [Example 22a, 2-(((1R*,6R*)-5-((R*)-2-(5-Chloropyridin-2-yl)-2-methylbenzo[d][1,3]dioxol-4-yl)-2,5-diazabicyclo[4.2.0]octan-2-yl)methyl)-1-(((S)-oxetan-2-yl)methyl)-1H-benzo[d]imidazole-6-carboxylic acid]: the figures for the EC50 (on human GLP-1R receptor; in assay [1]) were 29 nM and 49 nM, respectively.
The corresponding values for `C[C@]1(c2ccc(Cl)cn2)Oc2cccc(N3CCN(Cc4nc5c(F)cc(C(=O)O)cc5n4CC4(C#N)CC4)[C@H]4CC[C@@H]43)c2O1` (single isomer, unassigned) [Example 24b] are 2.1 nM and 8 nM.
The corresponding values for `C[C@]1(c2ccc(Cl)cn2)Oc2cccc(N3CCN(Cc4nc5c(F)cc(C(=O)O)cc5n4CC4(CC#N)CC4)[C@H]4CC[C@@H]43)c2O1` (single isomer, unassigned) [Example 23c] are 140 nM and 360 nM.
For `C[C@]1(c2ccc(Cl)cn2)Oc2cccc(N3CCN(Cc4nc5ccc(C(=O)O)cc5n4C[C@@H]4CCO4)[C@H]4CC[C@H]43)c2O1` (single isomer, unassigned) [Example 5d, 2-((1R*,6S*)-5-(R*)-2-(5-Chloropyridin-2-yl)-2-methylbenzo[d][1,3]dioxol-4-yl)-2,5-diazabicyclo[4.2.0]octan-2-yl)methyl)-1-(((S)-oxetan-2-yl)methyl)-1H-benzo[d]imidazole-6-carboxylic acid], the figures for the EC50 (on human GLP-1R receptor; in assay [1]) were 4.7 nM and 8.6 nM, respectively.
Turning to `C[C@]1(c2ccc(Cl)cc2F)Oc2cccc(N3CCN(Cc4nc5ccc(C(=O)O)cc5n4C[C@@H]4CCO4)[C@H]4CC[C@@H]43)c2O1` (single isomer, unassigned) [Example 21b, 2-(((1R*,6R*)-5-((R*)-2-(4-Chloro-2-fluorophenyl)-2-methylbenzo[d][1,3]dioxol-4-yl)-2,5-diazabicyclo[4.2.0]octan-2-yl)methyl)-1-(((S)-oxetan-2-yl)methyl)-1H-benzo[d]imidazole-6-carboxylic acid], the values for the EC50 (on human GLP-1R receptor; in assay [1]) were 340 nM and 2200 nM, respectively.
The corresponding values for `COc1cc(C(=O)O)cc2c1nc(CN1CCN(c3cccc4c3O[C@@](C)(c3ccc(Cl)cn3)O4)[C@H]3CC[C@@H]31)n2CC1(C#N)CC1` (single isomer, unassigned) [Example 25c] are 1.2 nM and 3.1 nM.
The corresponding values for `C[C@]1(c2ccc(Cl)cn2)Oc2cccc(N3CCN(Cc4nc5ccc(C(=O)O)cc5n4C[C@@H]4CCO4)[C@H]4CC[C@@H]43)c2O1` (single isomer, unassigned) [Example 22b, 2-(((1R*,6R*)-5-((R*)-2-(5-Chloropyridin-2-yl)-2-methylbenzo[d][1,3]dioxol-4-yl)-2,5-diazabicyclo[4.2.0]octan-2-yl)methyl)-1-(((S)-oxetan-2-yl)methyl)-1H-benzo[d]imidazole-6-carboxylic acid] are 5.3 nM and 18 nM.
For `C[C@]1(c2ccc(Cl)cn2)Oc2cccc(N3CCN(Cc4nc5c(F)cc(C(=O)O)cc5n4C[C@@H]4CCO4)[C@H]4CC[C@H]43)c2O1` (single isomer, unassigned) [Example 1a, 2-((1R*,6S*)-5-(R*)-2-(5-Chloropyridin-2-yl)-2-methylbenzo[d][1,3]dioxol-4-yl)-2,5-diazabicyclo[4.2.0]octan-2-yl)methyl)-4-fluoro-1-(((S)-oxetan-2-yl)methyl)-1H-benzo[d]imidazole-6-carboxylic acid], the results for the EC50 (on human GLP-1R receptor; in assay [1]) were 66 nM and 280 nM, respectively.
The corresponding values for `CC1(c2ccc(Cl)cn2)Oc2cccc(N3CCN(Cc4nc5c(F)cc(C(=O)O)cc5n4CCOC4CC4(F)F)[C@H]4CC[C@@H]43)c2O1` (mixture of isomers) [Example 14, rac-2-(((1R,6R)-5-(2-(5-Chloropyridin-2-yl)-2-methylbenzo[d][1,3]dioxol-4-yl)-2,5-diazabicyclo[4.2.0]octan-2-yl)methyl)-1-(2-(2,2-difluorocyclopropoxy)ethyl)-4-fluoro-1H-benzo[d]imidazole-6-carboxylic acid] are 45 nM and 38 nM.
The corresponding values for `COc1cc(C(=O)O)cc2c1nc(CN1CCN(c3cccc4c3O[C@@](C)(c3ccc(Cl)cn3)O4)[C@H]3CC[C@@H]31)n2CC1(C#N)CC1` (single isomer, unassigned) [Example 25a] are 130 nM and 260 nM.
For `C[C@]1(c2ccc(Cl)cn2)Oc2cccc(N3CCN(Cc4nc5c(Cl)cc(C(=O)O)cc5n4CC4(CC#N)CC4)[C@H]4CC[C@@H]43)c2O1` (single isomer, unassigned) [Example 26c], the EC50 on human GLP-1R receptor is 64 nM; in assay [1] it was 160 nM.
The corresponding values for `COc1cc(C(=O)O)cc2c1nc(CN1CCN(c3cccc4c3O[C@@](C)(c3ccc(Cl)cn3)O4)[C@@H]3CC[C@@H]31)n2C[C@@H]1CCCO1` (single isomer, unassigned) [Example 8a] are 6.2 nM and 6.6 nM.
As to `C[C@]1(c2ccc(Cl)cn2)Oc2cccc(N3CCN(Cc4nc5c(F)cc(C(=O)O)cc5n4CC4(C#N)CC4)[C@H]4CC[C@@H]43)c2O1` (single isomer, unassigned) [Example 24a], the figures for the EC50 (on human GLP-1R receptor; in assay [1]) were 32 nM and 16 nM, respectively.
